Experimental data reported in ChEMBL document CHEMBL5465560, “Selectivity Literature for EUbOPEN Chemogenomic Library” (2024).

Key:
[1] = test system: Mast/stem cell growth factor receptor Kit (Homo sapiens), P10721 [V559D]; conditions: at 10 µM
[2] = target: Cyclin-dependent kinase 5/CDK5 activator 1 (Homo sapiens) (UniProt Q00535+Q15078); test: Selectivity interaction (Millipore kinase profiler) EUB0000124b CDK5; assay type: protein-complex assay; conditions: at 10 µM
[3] = target: T1, Fibroblast growth factor receptor 1 (Homo sapiens, UniProt P11362); test: Selectivity interaction (Kinase screening (Nanosyn)) EUB0000604a FGFR1
T1 sequence (P11362 22-822 limits assumed): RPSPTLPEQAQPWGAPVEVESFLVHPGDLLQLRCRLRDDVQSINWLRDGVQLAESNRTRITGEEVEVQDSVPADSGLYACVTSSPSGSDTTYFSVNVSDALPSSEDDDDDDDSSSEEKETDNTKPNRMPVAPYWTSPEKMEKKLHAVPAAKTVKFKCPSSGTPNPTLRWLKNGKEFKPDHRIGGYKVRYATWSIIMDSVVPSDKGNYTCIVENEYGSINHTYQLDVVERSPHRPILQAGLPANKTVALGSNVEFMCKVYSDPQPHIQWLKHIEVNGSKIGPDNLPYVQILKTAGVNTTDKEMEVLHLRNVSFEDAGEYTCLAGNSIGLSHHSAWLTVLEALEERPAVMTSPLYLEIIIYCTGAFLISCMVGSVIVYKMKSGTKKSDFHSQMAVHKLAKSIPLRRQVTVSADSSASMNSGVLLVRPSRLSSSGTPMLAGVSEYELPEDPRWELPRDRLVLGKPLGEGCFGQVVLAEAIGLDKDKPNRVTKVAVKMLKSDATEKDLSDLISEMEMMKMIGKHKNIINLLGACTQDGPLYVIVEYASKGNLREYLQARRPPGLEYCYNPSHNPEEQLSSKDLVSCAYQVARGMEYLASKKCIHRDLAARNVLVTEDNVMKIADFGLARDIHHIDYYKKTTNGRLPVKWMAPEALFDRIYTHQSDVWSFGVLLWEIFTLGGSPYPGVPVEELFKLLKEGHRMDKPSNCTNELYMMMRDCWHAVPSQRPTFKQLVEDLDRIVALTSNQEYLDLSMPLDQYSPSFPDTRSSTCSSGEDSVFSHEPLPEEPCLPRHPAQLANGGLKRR

[4] = target: T1, Fibroblast growth factor receptor 1; test: Selectivity interaction (Ambit KINOMEscan and KiNATiv profiling in Jurkat cells) EUB0000090b FGFR1; assay type: cell-based; conditions: at 1 µM
[5] = target: Epidermal growth factor receptor (Homo sapiens, UniProt P00533); test: Selectivity interaction (Kinase panel (Invitrogen)) EUB0000639a EGFR; conditions: at 200 nM
[6] = target: T2, Interleukin-1 receptor-associated kinase 3 (Homo sapiens) (UniProt Q9Y616); test: Selectivity interaction (ActivX KiNativ screen (kinase selectivity in THP-1 cell lysates)) EUB0000639a IRAK3; assay type: subcellular; conditions: lysate, at 1 µM
T2 sequence (whole entry): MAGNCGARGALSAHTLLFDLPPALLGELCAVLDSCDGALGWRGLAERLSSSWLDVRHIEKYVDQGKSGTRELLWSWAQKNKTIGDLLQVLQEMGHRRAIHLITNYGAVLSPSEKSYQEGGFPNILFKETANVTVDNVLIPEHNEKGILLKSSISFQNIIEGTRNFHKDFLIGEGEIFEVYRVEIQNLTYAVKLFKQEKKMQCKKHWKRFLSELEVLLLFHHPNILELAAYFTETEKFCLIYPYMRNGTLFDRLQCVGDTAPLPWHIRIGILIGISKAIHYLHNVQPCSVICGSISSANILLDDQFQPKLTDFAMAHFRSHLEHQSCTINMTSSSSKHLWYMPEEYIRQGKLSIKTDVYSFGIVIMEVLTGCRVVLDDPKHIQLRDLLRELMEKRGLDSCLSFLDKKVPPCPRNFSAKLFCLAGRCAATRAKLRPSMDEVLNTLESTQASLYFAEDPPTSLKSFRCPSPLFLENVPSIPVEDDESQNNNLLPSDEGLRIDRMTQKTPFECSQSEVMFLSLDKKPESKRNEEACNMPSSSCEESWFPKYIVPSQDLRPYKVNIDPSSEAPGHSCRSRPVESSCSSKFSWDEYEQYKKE

[7] = target: Serine/threonine-protein kinase tousled-like 2 (Homo sapiens) (UniProt Q86UE8); test: Selectivity interaction (ActivX KiNativ screen (kinase selectivity in THP-1 cell lysates)) EUB0000639a TLK2; assay type: subcellular; conditions: lysate
Chain of Serine/threonine-protein kinase tousled-like 2 (Homo sapiens) (Q86UE8 whole entry, looked up): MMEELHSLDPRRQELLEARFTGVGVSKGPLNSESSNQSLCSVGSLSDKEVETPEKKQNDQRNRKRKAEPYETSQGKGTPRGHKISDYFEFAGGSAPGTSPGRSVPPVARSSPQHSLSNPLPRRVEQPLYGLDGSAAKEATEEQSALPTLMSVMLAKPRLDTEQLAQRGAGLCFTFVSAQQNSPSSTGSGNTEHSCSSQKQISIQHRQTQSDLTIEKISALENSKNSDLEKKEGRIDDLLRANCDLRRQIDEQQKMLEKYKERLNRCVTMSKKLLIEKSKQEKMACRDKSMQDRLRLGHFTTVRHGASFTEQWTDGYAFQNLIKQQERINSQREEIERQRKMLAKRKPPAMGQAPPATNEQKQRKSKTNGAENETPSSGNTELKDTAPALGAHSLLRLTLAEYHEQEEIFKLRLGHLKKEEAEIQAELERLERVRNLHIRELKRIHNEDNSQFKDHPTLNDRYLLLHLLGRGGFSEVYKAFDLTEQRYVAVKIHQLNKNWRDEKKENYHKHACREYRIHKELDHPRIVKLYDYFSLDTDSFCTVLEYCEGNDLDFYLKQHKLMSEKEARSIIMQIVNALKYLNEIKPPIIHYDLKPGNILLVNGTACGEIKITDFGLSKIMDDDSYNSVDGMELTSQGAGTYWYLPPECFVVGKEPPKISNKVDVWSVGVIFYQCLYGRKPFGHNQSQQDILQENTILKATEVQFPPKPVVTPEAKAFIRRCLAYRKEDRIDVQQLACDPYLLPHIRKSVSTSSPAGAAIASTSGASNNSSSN

[8] = target: Tyrosine-protein kinase JAK1 (Homo sapiens, UniProt P23458); test: Selectivity interaction (Kinase panel (Carna Biosciences)) EUB0001542aTs JAK1; conditions: at 1 µM
Chain of Tyrosine-protein kinase JAK1 (P23458 whole entry): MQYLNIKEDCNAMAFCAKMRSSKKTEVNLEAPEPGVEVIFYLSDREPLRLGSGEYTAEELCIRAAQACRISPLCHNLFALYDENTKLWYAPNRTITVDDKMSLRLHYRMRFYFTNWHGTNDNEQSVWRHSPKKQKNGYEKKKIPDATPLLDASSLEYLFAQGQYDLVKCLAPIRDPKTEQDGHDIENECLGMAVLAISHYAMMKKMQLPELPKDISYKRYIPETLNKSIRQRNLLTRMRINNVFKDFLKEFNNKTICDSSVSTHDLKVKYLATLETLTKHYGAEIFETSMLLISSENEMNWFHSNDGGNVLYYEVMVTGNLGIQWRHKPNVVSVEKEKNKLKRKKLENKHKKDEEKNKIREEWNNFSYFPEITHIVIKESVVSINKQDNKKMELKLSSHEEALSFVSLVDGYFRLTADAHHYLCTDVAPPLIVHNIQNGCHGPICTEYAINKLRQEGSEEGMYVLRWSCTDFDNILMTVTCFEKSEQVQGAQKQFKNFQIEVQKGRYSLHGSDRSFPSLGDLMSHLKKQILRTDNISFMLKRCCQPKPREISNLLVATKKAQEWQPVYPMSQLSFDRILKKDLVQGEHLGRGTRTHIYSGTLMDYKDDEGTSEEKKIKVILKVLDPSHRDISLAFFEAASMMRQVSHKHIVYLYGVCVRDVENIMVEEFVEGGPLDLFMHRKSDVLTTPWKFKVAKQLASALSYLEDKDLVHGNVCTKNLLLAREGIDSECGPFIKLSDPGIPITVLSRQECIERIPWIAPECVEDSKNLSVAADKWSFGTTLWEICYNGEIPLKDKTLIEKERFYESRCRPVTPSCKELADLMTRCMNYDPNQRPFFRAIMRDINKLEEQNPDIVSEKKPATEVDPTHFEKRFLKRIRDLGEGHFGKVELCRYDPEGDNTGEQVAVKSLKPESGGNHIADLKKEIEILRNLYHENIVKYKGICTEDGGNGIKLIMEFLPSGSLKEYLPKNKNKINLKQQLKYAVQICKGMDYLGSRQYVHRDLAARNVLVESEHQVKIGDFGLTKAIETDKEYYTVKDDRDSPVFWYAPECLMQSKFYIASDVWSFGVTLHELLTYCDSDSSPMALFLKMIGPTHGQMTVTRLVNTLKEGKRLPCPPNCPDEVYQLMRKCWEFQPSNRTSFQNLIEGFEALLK

[9] = target: G protein-coupled receptor kinase 4 (Homo sapiens) (UniProt P32298); test: Selectivity interaction (Kinase panel (Z-LYTE Assay)) EUB0001632a GRK4; conditions: at 10 µM
[10] = target: Phosphatidylinositol 4,5-bisphosphate 3-kinase catalytic subunit alpha isoform (Homo sapiens) (UniProt P42336); test: Selectivity interaction (Adapta Assay) EUB0001632a PIK3CA; conditions: at 10 µM
[11] = target: Insulin receptor (Homo sapiens, UniProt P06213); test: Selectivity interaction (KinomeScan (DiscoverX)) EUB0000695a INSR; conditions: at 100 nM
Chain of Insulin receptor (P06213 28-758 limits assumed): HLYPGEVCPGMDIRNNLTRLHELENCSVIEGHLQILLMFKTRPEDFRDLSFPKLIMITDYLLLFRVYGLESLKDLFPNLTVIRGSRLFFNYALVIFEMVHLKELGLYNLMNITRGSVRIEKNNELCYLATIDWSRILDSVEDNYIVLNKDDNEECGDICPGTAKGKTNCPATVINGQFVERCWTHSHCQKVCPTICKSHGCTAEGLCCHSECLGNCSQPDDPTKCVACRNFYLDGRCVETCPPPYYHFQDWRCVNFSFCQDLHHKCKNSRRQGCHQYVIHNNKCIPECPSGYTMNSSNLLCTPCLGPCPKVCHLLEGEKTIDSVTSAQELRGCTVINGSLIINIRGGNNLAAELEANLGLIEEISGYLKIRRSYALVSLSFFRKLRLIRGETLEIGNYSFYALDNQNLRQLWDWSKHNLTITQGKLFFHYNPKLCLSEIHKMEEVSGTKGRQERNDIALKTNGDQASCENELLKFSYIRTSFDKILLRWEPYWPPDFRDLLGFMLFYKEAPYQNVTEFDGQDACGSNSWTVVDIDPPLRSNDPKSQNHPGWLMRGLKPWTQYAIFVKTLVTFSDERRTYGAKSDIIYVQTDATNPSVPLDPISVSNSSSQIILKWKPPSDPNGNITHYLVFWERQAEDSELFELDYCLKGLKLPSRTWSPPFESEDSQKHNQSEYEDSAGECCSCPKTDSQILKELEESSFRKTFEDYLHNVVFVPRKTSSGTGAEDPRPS
Chain of Insulin receptor (P06213 763-1382 limits assumed): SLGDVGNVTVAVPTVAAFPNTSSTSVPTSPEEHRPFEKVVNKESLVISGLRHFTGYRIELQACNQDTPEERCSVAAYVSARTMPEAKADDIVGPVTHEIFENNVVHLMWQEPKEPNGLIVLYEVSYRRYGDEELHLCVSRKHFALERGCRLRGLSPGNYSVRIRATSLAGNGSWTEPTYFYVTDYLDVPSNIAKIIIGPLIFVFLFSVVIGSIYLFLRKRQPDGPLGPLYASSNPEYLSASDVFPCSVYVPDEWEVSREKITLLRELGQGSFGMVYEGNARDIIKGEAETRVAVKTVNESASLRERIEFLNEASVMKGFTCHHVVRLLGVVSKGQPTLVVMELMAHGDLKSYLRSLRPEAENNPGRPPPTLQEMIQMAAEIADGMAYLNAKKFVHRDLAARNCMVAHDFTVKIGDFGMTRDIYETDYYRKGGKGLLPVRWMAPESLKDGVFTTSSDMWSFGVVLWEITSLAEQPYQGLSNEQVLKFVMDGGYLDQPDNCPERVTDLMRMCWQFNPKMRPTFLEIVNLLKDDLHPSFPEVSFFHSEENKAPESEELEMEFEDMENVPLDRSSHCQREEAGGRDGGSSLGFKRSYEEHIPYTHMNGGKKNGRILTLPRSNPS

[12] = target: Tyrosine-protein kinase Yes (Homo sapiens) (UniProt P07947); conditions: at 10 µM
[13] = target: Cyclin-dependent kinase 3 (Homo sapiens) (UniProt Q00526); test: Selectivity interaction (KinomeScan (DiscoverX)) EUB0000229b CDK3; conditions: at 10 µM
Chain of Cyclin-dependent kinase 3 (Homo sapiens) (Q00526 whole entry, looked up): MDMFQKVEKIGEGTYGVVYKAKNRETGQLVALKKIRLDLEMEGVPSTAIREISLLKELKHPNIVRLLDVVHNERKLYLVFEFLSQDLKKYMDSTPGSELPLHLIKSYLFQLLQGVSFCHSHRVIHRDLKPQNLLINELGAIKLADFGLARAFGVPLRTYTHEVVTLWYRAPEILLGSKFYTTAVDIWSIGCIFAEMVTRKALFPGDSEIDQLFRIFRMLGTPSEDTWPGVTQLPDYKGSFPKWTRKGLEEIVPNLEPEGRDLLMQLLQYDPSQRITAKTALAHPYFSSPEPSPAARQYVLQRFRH

[14] = target: SRSF protein kinase 1 (Homo sapiens, UniProt Q96SB4); test: Selectivity interaction (KinomeScan (DiscoverX)) EUB0000045b SRPK1
Chain of SRSF protein kinase 1 (Q96SB4 whole entry): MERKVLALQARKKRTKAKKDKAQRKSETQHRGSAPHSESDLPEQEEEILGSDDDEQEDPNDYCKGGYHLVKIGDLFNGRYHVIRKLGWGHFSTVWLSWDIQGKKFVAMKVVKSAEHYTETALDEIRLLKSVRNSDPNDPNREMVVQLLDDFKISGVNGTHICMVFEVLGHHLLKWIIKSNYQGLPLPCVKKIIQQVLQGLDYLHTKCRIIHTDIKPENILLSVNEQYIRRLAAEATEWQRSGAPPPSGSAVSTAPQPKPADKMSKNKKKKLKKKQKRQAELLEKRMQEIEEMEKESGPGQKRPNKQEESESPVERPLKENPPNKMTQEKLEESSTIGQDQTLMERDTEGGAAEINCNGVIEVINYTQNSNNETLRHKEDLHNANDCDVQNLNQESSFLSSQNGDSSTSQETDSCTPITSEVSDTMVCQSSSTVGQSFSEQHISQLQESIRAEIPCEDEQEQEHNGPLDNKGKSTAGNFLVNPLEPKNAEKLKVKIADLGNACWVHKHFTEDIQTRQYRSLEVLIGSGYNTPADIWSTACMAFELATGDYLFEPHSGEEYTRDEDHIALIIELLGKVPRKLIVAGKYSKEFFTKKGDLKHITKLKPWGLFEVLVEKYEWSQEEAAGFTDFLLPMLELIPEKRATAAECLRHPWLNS

[15] = target: BDNF/NT-3 growth factors receptor (Homo sapiens) (UniProt Q16620); test: Selectivity interaction (KinomeScan (DiscoverX)) EUB0000607a NTRK2; conditions: at 10 µM
[16] = target: 5'-AMP-activated protein kinase catalytic subunit alpha-2 (Homo sapiens) (UniProt P54646); test: Selectivity interaction (KinomeScan (DiscoverX)) EUB0000607a PRKAA2; conditions: at 10 µM

Compound: Cc1cc([C@@H](C)Nc2ccccc2C(=O)O)c2nc(N3CCOCC3)cc(=O)n2c1 [AZD-6482]
- % of control [1]: 91%

Compound: CC(=O)Nc1cccc(-n2c(=O)n(C3CC3)c(=O)c3c(Nc4ccc(I)cc4F)n(C)c(=O)c(C)c32)c1
- % of control [2]: 102%

Compound: Cc1cnc(Nc2ccc(F)cc2Cl)nc1-c1c[nH]c(C(=O)N[C@H](CO)c2cccc(Cl)c2)c1
- % of inhibition [3]: 3%

Compound: CN(C)C/C=C/C(=O)Nc1ccc(C(=O)N2CCCC(Nc3ncc(Cl)c(-c4c[nH]c5ccccc45)n3)C2)cc1 (stereo unspecified)
- % of control [4]: 82%

Compound: CC[C@@H]1[C@H](F)C(=O)N[C@@H]1COc1nccc2cc(C(N)=O)c(OC)cc12 [ZIMLOVISERTIB]
- % of inhibition [5]: 3.43%
- % of inhibition [6]: 73%
- % of inhibition ([7]; at 0.01 µM): 16.6%
- % of inhibition ([7]; at 0.04 µM): 2.6%
- % of inhibition ([7]; at 0.2 µM): 18.7%
- % of inhibition ([7]; at 1 µM): 46.3%
- % of inhibition ([7]; at 5 µM): 73.5%

Compound: Cn1cc(Nc2nccc(N3CC4CCC(C3)N4C(=O)[C@@H]3CC3(F)F)n2)cn1
- % of inhibition [8]: 96%

Compound: Cn1cc(-n2cnc3c(NCc4nc5cc(Cl)c(Cl)cc5[nH]4)nc(N4CCOCC4)nc32)cn1
- % of control [9]: 0.672%
- % of inhibition [10]: 22.8%

Compound: Cc1cc(F)c(C(=O)Nc2cccc(-c3nncn3C(C)C)n2)cc1-n1cnc(C2CC2)c1
- % of control [11]: 100%

Compound: CCN(CC)CCCCNc1ncc2cc(-c3cc(OC)cc(OC)c3)c(NC(=O)NC(C)(C)C)nc2n1
- % of control [12]: 100%

Compound: COc1cc(N(C)c2ccnc3ccc(C(F)(F)F)cc23)cc(OC)c1OC
- % binding [13]: 100%

Compound: C=CC(=O)Nc1cc(-n2c(=O)ccc3cnc4ccc(-c5ccc(NS(C)(=O)=O)cc5)cc4c32)ccc1C
- % of control ([14]; at 1 µM): 78%
- % of control ([14]; at 10 µM): 100%

Compound: CNC(=O)Nc1ccc(-c2nc(N3CC4CCC(C3)O4)c3cnn(C4CCC5(CC4)OCCO5)c3n2)cc1
- % of control [15]: 100%
- % of control [16]: 93%
